Laboratory results taken from patent publication US5028587A, “Mixed crystals of insulin and insulin derivatives” (Hoechst Aktiengesellschaft, priority 1987, dated 1991).

Columns and labels:
[1] = specific activity of the insulin used; conditions: specific activity of the substance used for crystallization
[2] = cited from earlier work
[3] = isoelectric point by isoelectric focusing; format: physicochemical; conditions: pH
Excerpt: It is common to all these insulin derivatives that the additional positive charge(s) which is(are) located on the surface of the molecule confer on the molecule an isoelectric point which is displaced into the neutral range. Depending on the derivative, the isoelectric points measured by isoelectric focusing are from about 5.8 to about 8.5, in particular about 6.2 to about 8.2. This means that the derivatives are less soluble in the neutral range than is unmodified insulin, whose isoelectric point, and thus whose region of maximum insolubility, is at a pH of about 5.4, whereas it is normally in dissolved form in the neutral range.

Arg2 -(B31-32) human insulin
activity [1]: 27 I.U./mg

Arg-B31 human insulin
activity [1]: 27 I.U./mg

Human insulin
activity [1]: 27 I.U./mg

insulin [unmodified insulin]
in vivo half-life [2]: about 7 minutes
isoelectric point [3]: about 5.4
